Experimental data from patent US20160215348A1, “GENE EXPRESSION BIOMARKERS AND THEIR USE FOR DIAGNOSTIC AND PROGNOSTIC APPLICATION IN PATIENTS POTENTIALLY IN NEED OF HDAC INHIBITOR TREATMENT” (4SC AG, priority 2013, published 2016).

What was measured:
Experiment in all cases: qPCR relative expression (vs cycle 1, day 1, hour 0) in patients' whole blood
Assay type in all cases: in vivo, human
18S = test system: 18S
Description: (§1) 2.5 ml whole blood from patients was collected in PAXgene™ tubes (BD Biosciences) that contain chemicals to lyse the erythrocytes, stabilize RNA from degradation by RNases and minimize ex vivo changes in gene expression. The samples were incubated at 20° C. to 25° C. for 2 hours and then frozen at −20° C. until purification of total RNA.
(§2) Total RNA was isolated from the whole blood samples stabilized in PAXgene™ buffer using a spin column based technique suitable for whole blood samples (like PAXgene™ Blood miRNA Kit or PAXgene™ Blood RNA Kit from Qiagen) according to the manufacturer's instructions. The purification began with a centrifugation step to pellet nucleic acids in the (PAXgene™ Blood RNA) tube. The resuspended pellet was incubated in buffers, optimized for maintenance of RNA stability together with proteinase K to bring about protein digestion. An additional centrifugation through the PAXgene™ Shredder spin column was carried out to homogenize the cell lysate and remove residual cell debris, and the supernatant of the flow-through fraction was transferred to a fresh microcentrifuge tube. Ethanol was added to adjust binding conditions, and the lysate was applied to a PAXgene™ RNA spin column. During a brief centrifugation, RNA was selectively bound to the PAXgene™ silica membrane as contaminants pass through. Remaining contaminants were removed in several efficient wash steps. Between the first and second wash steps, the membrane was treated with DNase I, as described herein below in 1.3 to remove trace amounts of bound DNA. After the wash steps, RNA was eluted in nuclease free water and heat-denatured.
(§3) The High-Capacity cDNA Reverse Transcription Kit (Applied Biosystems) was used for reverse transcription of total RNA into single stranded cDNA with the aid of random hexamer primers according to the manufacturer's instructions. Briefly, for the reaction mix total RNA was mixed with random primers in excess, 4 mM dNTP Mix, 2.5 U/reaction, reverse transcriptase and nuclease free water. The reverse transcription took place in a thermal cycler under the following conditions: 25° C. for 10 min, 37° C. for 120 min, 85° C. for 5 min, followed by 4° C. for cooling down the reaction. The reverse transcription can be done in principle as well with other reverse transcriptases, primers and temperature protocols. Whenever possible, 250 ng total RNA were reverse transcribed if not available, lower amounts were used.
(§4) Custom TaqMan® Arrays (Applied Biosystems) in Format 16 were designed for the gene expression analysis of biomarkers of the present invention and housekeeping genes as outlined in table 4. These arrays allow for qPCR analysis of 8 samples per card. Of course, all reactions can be done as well by conventional qPCR analysis with specific primers.
(§5) The reaction mix was transferred into the reaction chambers by centrifuging twice for 1 minute each at 330 g and 4° C. After sealing, the microfluidic cards were run on an AB7900HT instrument (Applied Biosystems). The software SDS 2.4 (Applied Biosystems) was employed for instrument control, data acquisition and raw data analysis. The plates were run in Relative Quantification (ΔΔCt) mode, and the following temperature profile was used:
(§6) This analysis was carried out for each patient separately. The first sample (cycle 1, day 1, hour 0) was used as the reference sample. The ‘exprs’ value indicates relative expression levels (fold change values) for individual samples.
(§7) Table 5 contains the median expression level values for treatment day 5 (cycle 1, day 5, hours 0, 2, and 5) at a daily dose of 600 mg or 800 mg Resminostat mesylate salt is given below.

CCDC43 = test system: CCDC43
Description: as §1, §2, §3, §4, §5, §6, §7

DPP3 = test system: DPP3
Description: as §1, §2, §3, §4, §5, §6, §7

GAPDH = test system: GAPDH
Description: as §1, §2, §3, §4, §5, §6, §7

HIST2H4A; HIST2H4B = test system: HIST2H4A; HIST2H4B
Description: as §1, §2, §3, §4, §5, §6, §7

KDELC2 = test system: KDELC2
Description: as §1, §2, §3, §4, §5, §6, §7

MICALL1 = test system: MICALL1
Description: as §1, §2, §3, §4, §5, §6, §7

TBP = test system: TBP
Description: as §1, §2, §3, §4, §5, §6, §7

ZFP64 = test system: ZFP64
Description: as §1, §2, §3, §4, §5, §6, §7

[1] = cycle 1, day 5, hour 0, 600 mg dose
[2] = cycle 1, day 5, hour 0, 800 mg dose
[3] = cycle 1, day 5, hour 2, 600 mg dose
[4] = cycle 1, day 5, hour 2, 800 mg dose
[5] = cycle 1, day 5, hour 5, 600 mg dose
[6] = cycle 1, day 5, hour 5, 800 mg dose

Median expression level, MICALL1 (MICALL1; [1]): 0.981 | Median expression level, MICALL1 (MICALL1; [2]): 1.024 | Median expression level, MICALL1 (MICALL1; [3]): 0.395 | Median expression level, MICALL1 (MICALL1; [4]): 0.407 | Median expression level, MICALL1 (MICALL1; [5]): 0.201 | Median expression level, MICALL1 (MICALL1; [6]): 0.163
Compound: CN(C)Cc1ccc(S(=O)(=O)n2ccc(/C=C/C(=O)NO)c2)cc1 [resminostat, (E)-3-(1-(4-((dimethylamino)methyl)phenylsulfonyl)-1H-pyrrol-3-yl)-N-hydroxyacrylamide]
Median expression level, 18S (18S; [1]): 0.872 | Median expression level, 18S (18S; [2]): 0.635 | Median expression level, 18S (18S; [3]): 0.871 | Median expression level, 18S (18S; [4]): 0.682 | Median expression level, 18S (18S; [5]): 0.778 | Median expression level, 18S (18S; [6]): 0.550 | Median expression level, CCDC43 (CCDC43; [1]): 0.917 | Median expression level, CCDC43 (CCDC43; [2]): 1.391 | Median expression level, CCDC43 (CCDC43; [3]): 0.318 | Median expression level, CCDC43 (CCDC43; [4]): 0.329 | Median expression level, CCDC43 (CCDC43; [5]): 0.378 | Median expression level, CCDC43 (CCDC43; [6]): 0.319 | Median expression level, DPP3 (DPP3; [1]): 1.121 | Median expression level, DPP3 (DPP3; [2]): 1.457 | Median expression level, DPP3 (DPP3; [3]): 0.767 | Median expression level, DPP3 (DPP3; [4]): 0.912 | Median expression level, DPP3 (DPP3; [5]): 0.267 | Median expression level, DPP3 (DPP3; [6]): 0.395 | Median expression level, GAPDH (GAPDH; [1]): 1.092 | Median expression level, GAPDH (GAPDH; [2]): 1.136 | Median expression level, GAPDH (GAPDH; [3]): 1.201 | Median expression level, GAPDH (GAPDH; [4]): 1.362 | Median expression level, GAPDH (GAPDH; [5]): 1.296 | Median expression level, GAPDH (GAPDH; [6]): 1.228 | Median expression level, HIST2H4A; HIST2H4B (HIST2H4A; HIST2H4B; [1]): 0.875 | Median expression level, HIST2H4A; HIST2H4B (HIST2H4A; HIST2H4B; [2]): 1.530 | Median expression level, HIST2H4A; HIST2H4B (HIST2H4A; HIST2H4B; [3]): 2.111 | Median expression level, HIST2H4A; HIST2H4B (HIST2H4A; HIST2H4B; [4]): 3.345 | Median expression level, HIST2H4A; HIST2H4B (HIST2H4A; HIST2H4B; [5]): 2.042 | Median expression level, HIST2H4A; HIST2H4B (HIST2H4A; HIST2H4B; [6]): 2.821 | Median expression level, KDELC2 (KDELC2; [1]): 0.909 | Median expression level, KDELC2 (KDELC2; [2]): 1.141 | Median expression level, KDELC2 (KDELC2; [3]): 0.544 | Median expression level, KDELC2 (KDELC2; [4]): 0.509 | Median expression level, KDELC2 (KDELC2; [5]): 0.215 | Median expression level, KDELC2 (KDELC2; [6]): 0.215 | Median expression level, TBP (TBP; [1]): 0.991 | Median expression level, TBP (TBP; [2]): 1.305 | Median expression level, TBP (TBP; [3]): 0.994 | Median expression level, TBP (TBP; [4]): 1.071 | Median expression level, TBP (TBP; [5]): 1.052 | Median expression level, TBP (TBP; [6]): 1.286 | ZFP64 expression in cancer patients (FIG. 4b) (ZFP64; blood cells of HCC and HL patients, 600 or 800 mg daily, Day 1 and Day 5): down-regulates | Median expression level, ZFP64 (ZFP64; [1]): 0.980 | Median expression level, ZFP64 (ZFP64; [2]): 1.280 | Median expression level, ZFP64 (ZFP64; [3]): 0.412 | Median expression level, ZFP64 (ZFP64; [4]): 0.356 | Median expression level, ZFP64 (ZFP64; [5]): 0.228 | Median expression level, ZFP64 (ZFP64; [6]): 0.188
